According to article PMC8267472, “The Effect of Cream and Gel Vehicles on the Percutaneous Absorption and Skin Retention of a New Eugenol Derivative With Antioxidant Activity” (Frontiers in Pharmacology, 2021):
Where two headings read alike, the source gives them in different places.

Columns and labels:
[1] = DPPH radical reduction by ethanolic solutions of eugenol and EDChA (IC50); format: biochemical; conditions: ethanolic solution, 10 min incubation, 517 nm; read-out: IC50, concentration reducing 50% of free radicals (DPPH method)
Procedure: Antioxidative activity of ethanolic solutions of eugenol and its new derivative (EDChA) were determined using spectrophotometric method based on DPPH radical reduction as described elsewhere ([Brand-Williams et al., 1995]; [Makuch et al., 2020]). The absorbance at the wavelength of 517 nm was measured using Spectroquant Pharo 300 (Merck, Germany). The antioxidant activity of eugenol and its ester was measured as follows: to 2,850 µl of DPPH ethanolic solution (absorbance at 517 nm 1.00 ± 0.02) 150 µl of the sample (containing one of the tested compound at a concentration of 1.000 w/w) was added. The concentration of the analyzed sample in DPPH ethanolic solution was 0.050% w/w. The tube was wrapped in aluminum foil, sealed with a stopper and incubated for 10 min at room temperature. Each sample was prepared in triplicate. After incubation, spectrophotometric measurements were carried out at 517 nm. Solvent applied to obtain extracts was used as reference. The results were expressed as radical scavenging activity (RSA) ([Nowak et al., 2019]). For each studied compound calibration curve of RSA vs. concentration (0.006–50.000% w/v) was prepared to calculate IC50, i.e. the concentration of the compound reducing 50% of free radicals. The concentration range of the analyzed samples in DPPH ethanolic solution were 0.0003–2.5000% w/v.

[2] = Skin accumulation (extraction of skin after the permeation experiment); format: in vitro ADME, porcine; conditions: after 24 h experiment
Procedure: After completion of permeation experiment, the skin was extracted to estimate the residual amount of tested active ingredients accumulated in it. […] Extraction was carried out as follows: after the experiment was completed, the Franz diffusion chambers were dismantled, while the skin surface was washed three times with an aqueous solution of sodium lauryl sulfate (at a concentration of 0.5% w/w) to rinse of the excess of vehicle containing test compound. A patch (1 cm^2 diffusion surface) was cut from the skin prepared in this way, dried at room temperature, and then weighed and cut into smaller pieces. […] The obtained extracts were then centrifuged at 3,500 rpm for 5 min. The supernatant was analyzed by HPLC to determine the content of active ingredients, while tests on the antioxidant activity of the obtained extracts was evaluated using the DPPH, Folin–Ciocalteau, and ABTS methods.
(§1) The permeation rate was determined based on the amount of permeated compound over a given period (μg/cm^2/h).
(§2) The samples were analyzed by high-performance liquid chromatography (HPLC) with a UV detector (Knauer, Berlin, Germany). […] The flow rate of the mobile phase, consisted of acetonitrile, water, and MeOH (28:64:8, by vol), was 1 ml/min. Twenty microliters of each analyzed sample was injected onto the column.

[3] = In vitro skin permeation in Franz diffusion cell; format: in vitro ADME, porcine
Procedure: The skin permeability for vehicles containing eugenol and EDChA were assessed in a Franz diffusion cell consisted of a 2 ml donor chamber and an 8 ml acceptor chamber. The permeation area was 1 cm^2. The acceptor fluid, mixed with a magnetic stirrer, was a PBS (phosphate-buffered saline, pH 7.4) solution that maintained the physiological pH. […] Before starting the test, Franz diffusion cells were allowed to equilibrate at 37°C for 15 min. Porcine skin was used for the study due to its similar permeability properties to human skin. The skin was from a local slaughterhouse. A fresh portion of skin from the abdomen was washed several times with a solution of PBS. Skin with a thickness of 0.5 mm was cut with a dermatome, and then it was wrapped in aluminum foil and frozen at –20°C for a maximum of 3 months. […] Before the study, the skin was thawed at room temperature for about 30 min, and then it was soaked in a PBS solution for 15 min to hydrate it. In the next stage, the skin was mounted in Franz diffusion cells. The integrity of skin was checked 1 h after its installation in the Franz diffusion chamber (SES GmbH Analyze Systeme, Germany). […] To make the measurement, the tips of the probes were immersed in the donor and acceptor chambers filled with the PBS solution.
Preparations (1.000 g) containing one of the test compound (eugenol and EDChA) were placed in the donor chamber. All donor chambers were closed with a plastic stopper to prevent excessive evaporation of the vehicle. […] The samples were analyzed by high-performance liquid chromatography (HPLC).
as §1, §2

[4] = Total polyphenole content by Folin-Ciocalteu method on acceptor fluid and solution after skin extraction
Procedure: The antioxidant activity of acceptor fluid taken after 24 h of permeation, and solutions obtained after skin extraction performed after the experiment was determined using the DPPH (according to the procedure described above) ([Brand-Williams et al., 1995]; [Makuch et al., 2020]), ABTS ([Makuch et al., 2020]) and Folin–Ciocalteau ([Nowak et al., 2019]; [Makuch et al., 2020]) methods. The ABTS assay is based on the generation of a blue/green ABTS radical, which is applicable to both hydrophilic and lipophilic antioxidant systems; whereas DPPH assay uses a radical dissolved in organic media and is, therefore, applicable to hydrophobic systems ([Molyneux 2004]). To determine the total content of phenolic compounds in the tested samples the method based on the use of the Folin–Ciocalteu reagent in alkaline medium was applied. The reaction is based on the spectrophotometrically recorded color change of the test solution from yellow to blue. Folin–Ciocalteu reagent was diluted tenfold with water in a dark bottle and incubated at room temperature for 60 min. […] The cuvette was sealed with a stopper and incubated for 15 min at room temperature. […]

[5] = shake-flask method; ref Makuch et al., 2020; cited from earlier work
[6] = set-up: method as in Floegel et al., 2011; conditions: literature value; ref Floegel et al., 2011; read-out: IC50 described in the literature (DPPH); cited from earlier work

SMILES	IC50 [1]	Skin accumulation of substance ([2]; cream vehicles)	Skin accumulation of substance ([2]; gel vehicles)	Cumulative mass of substance after 24 h of permeation test ([3]; cream vehicles, 1.000% w/w active, acceptor PBS pH 7.4, 1 cm^2)	Mass of substance in the acceptor fluid after 24 h of permeation ([3]; gel vehicles, 1.000% w/w active, acceptor PBS pH 7.4, 1 cm^2)	Antioxidant activity (Folin-Ciocalteu method) of solution obtained after skin extraction ([4]; cream vehicle)	Cumulative mass of substance after 24 h of permeation test ([3]; pig, 24 h, 1 % w/w, pH 7.4)	Mass of substance in the acceptor fluid after 24 h of permeation ([3]; pig, 24 h, 1 % w/w, pH 7.4)	Total polyphenole content (folin-ciocalteu method), solution after skin extraction ([4]; cream vehicles)	log p [5]	IC50 [6]
C=CCc1ccc(OC(=O)C(Cl)Cl)c(OC)c1 [EDChA, eugenyl dichloroacetate]	4280 µM	173.9 ± 8.4 µg/cm^2 skin	255.9 ± 20.1 µg/cm^2 skin	19.6 ± 1.8 µg	28.8 ± 2.6 µg	0.3 ± 0.1 mmol GA/dm^3					
C=CCc1ccc(O)c(OC)c1 [Eugenol, 4-allyl-2-methoxyphenol]	6.1 µM						20.5 ± 0.8 µg	31.3 ± 4.3 µg	0.2 ± 0.1 mmol GA/dm^3	2.20 ± 0.001	50.4 µM
